# Target: T1, Human GLP-1 receptor (Homo sapiens, UniProt P43220)
# T1 construct: expressed in transfected cells
# Assay: Measurement of GLP-1 receptor agonist activity (cAMP assay)
# Format: cell-based
# Conditions: hGLP-1R/CHO-K1 cells; for Emax: cAMP with 2 nM human GLP-1 (7-36) = 100%, DMSO only = 0%; for EC50: increase in cAMP concentration as index, 37° C., 1 hour
# Protocol: Test Example 1: Measurement of GLP-1 Receptor Agonist Activity
# Human GLP-1 receptor stably expressing cells (hGLP-1R/CHO-K1 cells) are cultured in an a-MEM medium (Sigma) containing 10% FBS (Hyclone), 2% GlutaMAX (Gibco), 1% G418 (Nacalai Tesque), and 1% Penicillin-Streptomycin Mixed Solution (Sigma) at 37° C. under 5% CO2 conditions, and recovered by treating a 10 fold diluted 5.0 g/l-trypsin/5.3 mmol/l-EDTA solution (Nacalai Tesque) and cryopreserved.
# A DMSO solution containing the compound of the present invention or human GLP-1 (7-36) (Phoenix Pharmaceuticals) is dispensed into a 384-well microplate (Greiner) at 62.5 nL/well, and in addition, 400 μM Forskolin (Nacalai Tesque) is dispensed therein at 7.5 nL/well. Subsequently, the frozen GLP-1 R/CHO-K1 cells are thawed in a thermostatic bath at 37° C., suspended in HBSS buffer containing 0.1% BSA (Sigma), 20 mM HEPES (GIBCO), 0.1 mM IBMX (Sigma), and 0.2 mM RO20-1724 (Calbiochem) at 2×10^4 cells/mL, and the cell suspension is added at 6 μL/well. The solution was incubated at 37° C. for 1 hour and intracellular cAMP concentration is measured using CAMP Gs dynamic kit (Cisbio) according to the protocol attached to the product. Specifically, a cAMP-d2/Anti-cAMP-Cryptate (1/1) mixed solution is added in a total amount of 6 μL/well, the mixture is incubated at room temperature for 1 hour, and time-resolved fluorescence is measured using PHERAstar (BMG Labtech).
# Assuming that the CAMP concentration when human GLP-1 (7-36) is dispensed to a final concentration of 2 nM is 100% and the CAMP concentration when only DMSO is dispensed is 0%, the 50% effective concentration (EC50) and the maximum effect (Emax) of the compound of the present invention are calculated using an increase in the CAMP concentration as an index, using TIBCO Spotfire (TIBCO Software). The dilution concentration or the dilution solvent are changed as necessary.
# The compounds of the present invention were tested essentially as described above.
# T1 sequence (P43220 24-463): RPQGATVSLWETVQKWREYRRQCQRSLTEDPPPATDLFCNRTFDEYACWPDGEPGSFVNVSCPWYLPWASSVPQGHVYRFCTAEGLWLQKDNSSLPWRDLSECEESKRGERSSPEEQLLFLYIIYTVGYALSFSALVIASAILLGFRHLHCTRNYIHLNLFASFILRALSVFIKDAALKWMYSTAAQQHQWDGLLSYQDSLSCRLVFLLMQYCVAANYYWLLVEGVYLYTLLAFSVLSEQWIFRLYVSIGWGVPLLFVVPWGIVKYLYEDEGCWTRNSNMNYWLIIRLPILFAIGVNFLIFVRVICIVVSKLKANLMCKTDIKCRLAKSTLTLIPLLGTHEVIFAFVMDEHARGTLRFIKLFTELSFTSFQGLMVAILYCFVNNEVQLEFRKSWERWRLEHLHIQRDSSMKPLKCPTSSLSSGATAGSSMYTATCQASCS
Compound,Emax [%],EC50 [nM]
Cn1c(/C=C/C(=O)O)cnc1CN1CCC(c2cccc(OCc3ccc(Cl)cc3F)n2)CC1 [I - 001],63.7,181
Cn1c(CN2CCC(c3cccc(OCc4ccc(Cl)cc4F)n3)CC2)nc(Br)c1/C=C/C(=O)O [I - 002],85,31.5
O=C(O)/C=C/c1c(Br)nc(CN2CCC(c3cccc(OCc4ccc(Cl)cc4F)n3)CC2)n1C[C@@H]1CCO1 [I - 003],107,0.401
Oc1nnc(-c2c(Br)nc(CN3CCC(c4cccc(OCc5ccc(Cl)cc5F)n4)CC3)n2C[C@@H]2CCO2)o1 [I - 004],97,7
Oc1nnc(-c2c(Cl)nc(CN3CCC(c4cccc(OCc5ccc(Cl)cc5F)n4)CC3)n2C[C@@H]2CCO2)o1 [I - 005],98.7,16.2
O=C(O)/C=C/c1c(Cl)nc(CN2CCC(c3cccc(OCc4ccc(Cl)cc4F)n3)CC2)n1C[C@@H]1CCO1 [I - 006],118,1.41
C[C@]1(c2ccc(Cl)cc2F)Oc2cccc(C3CCN(Cc4nc(Cl)c(/C=C/C(=O)O)n4C[C@@H]4CCO4)CC3)c2O1 [I - 007],92,0.138

# Further lines, results first:
Emax [%],EC50 [nM],Compound
105,0.368,C[C@H]1c2cc(OCc3ccc(Cl)cc3F)c(C(F)(F)F)cc2CCN1Cc1nc(Br)c(/C=C/C(=O)O)n1C[C@@H]1CCO1 [I - 008]
101,0.686,C[C@H]1c2nc(OCc3ccc(Cl)cc3F)c(C(F)(F)F)cc2CCN1Cc1ncc(/C=C/C(=O)O)n1C[C@@H]1CCO1 [I - 009]
96,0.151,C[C@H]1c2nc(OCc3ccc(Cl)cc3F)c(Cl)cc2CCN1Cc1nc(Br)c(/C=C/C(=O)O)n1C[C@@H]1CCO1 [I - 010]
99.7,0.0965,C[C@H]1c2nc(OCc3ccc(Cl)cc3F)c(C(F)(F)F)cc2CCN1Cc1nc(Cl)c(/C=C/C(=O)O)n1C[C@@H]1CCO1 [I - 011]
117,0.283,C[C@H]1c2nc(OCc3ccc(Cl)cc3F)c(C(F)F)cc2CCN1Cc1nc(Cl)c(/C=C/C(=O)O)n1C[C@@H]1CCO1 [I - 012]

# Reference: patent US20260265245A1, “AROMATIC HETEROCYCLIC DERIVATIVE HAVING GLP-1 RECEPTOR AGONIST ACTIVITY” (Shionogi & Co., Ltd., priority 2021, published 2026)
